The structures appear in SMILES notation.

The target of this experiment is T1, rat B1R (bradykinin receptor 1) (Rattus norvegicus, UniProt P97583).
T1 construct: expressed in transfected cells; host or cells: CHO K1 cells
T1 sequence (P97583 1-337): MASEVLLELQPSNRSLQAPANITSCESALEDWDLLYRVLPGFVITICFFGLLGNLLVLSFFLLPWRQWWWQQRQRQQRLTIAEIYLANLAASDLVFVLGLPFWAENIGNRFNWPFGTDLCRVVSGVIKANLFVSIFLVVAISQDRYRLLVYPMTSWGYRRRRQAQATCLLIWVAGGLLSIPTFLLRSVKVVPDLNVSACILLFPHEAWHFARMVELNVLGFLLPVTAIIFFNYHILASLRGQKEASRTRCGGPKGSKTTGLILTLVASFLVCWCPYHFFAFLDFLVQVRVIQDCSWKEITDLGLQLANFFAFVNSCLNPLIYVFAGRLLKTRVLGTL
The experiment is described as follows: FLIPR Ca2+ assay (Fluo-4) on CHO K1 cells stably transfected with the B1R gene of the rat (rB1R cells): % inhibition at 10 μM / IC50, agonist Des-Arg9-bradykinin. The format is cell-based. The conditions noted are these: CHO-K1, rat B1R. The method, boiled down:
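Peak fluorescence counts read on FLIPR (λex 488, λem 540 nm) after two additions: compound first, then agonist at EC80 after 10–20 min. Human line challenged with Lys-Des-Arg9-bradykinin, rat line with Des-Arg9-bradykinin. Suppression of Ca2+ inflow expressed as % of maximum inhibition.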
Regarding `Cc1cccc(Cl)c1C(=O)NC1CCc2ccc(C(=O)N3CCC4(CCN(Cc5c(C)nn(C)c5C)CC4)C3)cc21` (centres unmarked) [IND_CC-761, 2-Chloro-6-methyl-N-[6-[8-[(1,3,5-trimethyl-1H-pyrazol-4-yl)-methyl]-2,8-diazaspiro[4.5]decane-2-carbonyl]-2,3-dihydro-1H-inden-1-yl]-benzamide], the inhibition at 10 µM was 57%.
Then `CCn1cc(CN2CCC3(CC2)CCN(C(=O)c2ccc4c(c2)C(NC(=O)c2c(C)cccc2Cl)CC4)C3)c(C)n1` (centres unmarked) [IND_CC-762, 2-Chloro-N-[6-[8-[(1-ethyl-3-methyl-1H-pyrazol-4-yl)-methyl]-2,8-diazaspiro-[4.5]decane-2-carbonyl]-2,3-dihydro-1H-inden-1-yl]-6-methyl-benzamide], with 55%; and `Cc1cccc(Cl)c1C(=O)NC1CCc2ccc(C(=O)N3CCC4(CCN(Cc5cnc(N(C)C)nc5)CC4)C3)cc21` (centres unmarked) [IND_CC-763, 2-Chloro-N-[6-[8-[(2-dimethylamino-pyrimidin-5-yl)-methyl]-2,8-diazaspiro-[4.5]decane-2-carbonyl]-2,3-dihydro-1H-inden-1-yl]-6-methyl-benzamide], with 74%.
As for `Cc1cccc(Cl)c1C(=O)NC1CCc2ccc(C(=O)N3CCC4(CCN(Cc5ccc6ncccc6c5)CC4)C3)cc21` (centres unmarked) [IND_CC-764, 2-Chloro-6-methyl-N-[6-[8-(quinolin-6-yl-methyl)-2,8-diazaspiro[4.5]decane-2-carbonyl]-2,3-dihydro-1H-inden-1-yl]-benzamide], the figure is 71%; as for `Cc1cccc(Cl)c1C(=O)NC1CCc2ccc(C(=O)N3CCC4(CCN(Cc5ccc6nccnc6c5)CC4)C3)cc21` (centres unmarked) [IND_CC-765, 2-Chloro-6-methyl-N-[6-[8-(quinoxalin-6-yl-methyl)-2,8-diazaspiro[4.5]-decane-2-carbonyl]-2,3-dihydro-1H-inden-1-yl]-benzamide], 105%.
Then `Cc1cccc(Cl)c1C(=O)NC1CCc2ccc(C(=O)N3CCC4(CCN(Cc5ccc6c(c5)nnn6C)CC4)C3)cc21` (centres unmarked) [IND_CC-766, 2-Chloro-6-methyl-N-[6-[8-[(1-methyl-1H-benzotriazol-5-yl)-methyl]-2,8-diazaspiro[4.5]decane-2-carbonyl]-2,3-dihydro-1H-inden-1-yl]-benzamide], with 93%; and `Cc1cccc(Cl)c1C(=O)NC1CCc2ccc(C(=O)N3CCC4(CCN(CC(C)C)CC4)C3)cc21` (centres unmarked) [IND_CC-767, 2-Chloro-6-methyl-N-[6-[8-(2-methyl-propyl)-2,8-diazaspiro[4.5]decane-2-carbonyl]-2,3-dihydro-1H-inden-1-yl]-benzamide], with 73%.
As for `CCC(CC)CN1CCC2(CC1)CCN(C(=O)c1ccc3c(c1)C(NC(=O)c1c(C)cccc1Cl)CC3)C2` (centres unmarked) [IND_CC-768, 2-Chloro-N-[6-[8-(2-ethyl-butyl)-2,8-diazaspiro[4.5]decane-2-carbonyl]-2,3-dihydro-1H-inden-1-yl]-6-methyl-benzamide], the inhibition at 10 µM was 79%.
As for `Cc1cccc(Cl)c1C(=O)NC1CCc2ccc(C(=O)N3CCC4(CCN(CCc5ccccc5)CC4)C3)cc21` (centres unmarked) [IND_CC-769, 2-Chloro-6-methyl-N-[6-(8-phenethyl-2,8-diazaspiro[4.5]decane-2-carbonyl)-2,3-dihydro-1H-inden-1-yl]-benzamide], the figure is 91%; as for `Cc1cccc(Cl)c1C(=O)NC1CCc2ccc(C(=O)N3CCC4(CCN(CCCc5cccc(F)c5)CC4)C3)cc21` (centres unmarked) [IND_CC-770, 2-Chloro-N-[6-[8-[3-(3-fluorophenyl)-propyl]-2,8-diazaspiro[4.5]decane-2-carbonyl]-2,3-dihydro-1H-inden-1-yl]-6-methyl-benzamide], 109%.
As for `Cc1cccc(Cl)c1C(=O)NC1CCc2ccc(C(=O)N3CCC4(CCN(CCCc5ccc(F)cc5)CC4)C3)cc21` (centres unmarked) [IND_CC-771, 2-Chloro-N-[6-[8-[3-(4-fluorophenyl)-propyl]-2,8-diazaspiro[4.5]decane-2-carbonyl]-2,3-dihydro-1H-inden-1-yl]-6-methyl-benzamide], the figure is 108%; as for `CCn1cc(CN2CCC3(CC2)CCN(C(=O)c2ccc4c(c2)C(NC(=O)c2c(F)cccc2Cl)CC4)C3)c(C)n1` (centres unmarked) [IND_CC-772, 2-Chloro-N-[6-[8-[(1-ethyl-3-methyl-1H-pyrazol-4-yl)-methyl]-2,8-diazaspiro-[4.5]decane-2-carbonyl]-2,3-dihydro-1H-inden-1-yl]-6-fluoro-benzamide], 52%; as for `CN(C)c1ncc(CN2CCC3(CC2)CCN(C(=O)c2ccc4c(c2)C(NC(=O)c2c(F)cccc2Cl)CC4)C3)cn1` (centres unmarked) [IND_CC-773, 2-Chloro-N-[6-[8-[(2-dimethylamino-pyrimidin-5-yl)-methyl]-2,8-diazaspiro-[4.5]decane-2-carbonyl]-2,3-dihydro-1H-inden-1-yl]-6-fluoro-benzamide], 80%.
As for `O=C(NC1CCc2ccc(C(=O)N3CCC4(CCN(Cc5ccc6ncccc6c5)CC4)C3)cc21)c1c(F)cccc1Cl` (centres unmarked) [IND_CC-774, 2-Chloro-6-fluoro-N-[6-[8-(quinolin-6-yl-methyl)-2,8-diazaspiro[4.5]decane-2-carbonyl]-2,3-dihydro-1H-inden-1-yl]-benzamide], the figure is 81%; as for `O=C(NC1CCc2ccc(C(=O)N3CCC4(CCN(Cc5ccc6nccnc6c5)CC4)C3)cc21)c1c(F)cccc1Cl` (centres unmarked) [IND_CC-775, 2-Chloro-6-fluoro-N-[6-[8-(quinoxalin-6-yl-methyl)-2,8-diazaspiro[4.5]decane-2-carbonyl]-2,3-dihydro-1H-inden-1-yl]-benzamide], 98%; as for `Cn1nnc2cc(CN3CCC4(CC3)CCN(C(=O)c3ccc5c(c3)C(NC(=O)c3c(F)cccc3Cl)CC5)C4)ccc21` (centres unmarked) [IND_CC-776, 2-Chloro-6-fluoro-N-[6-[8-[(1-methyl-1H-benzotriazol-5-yl)-methyl]-2,8-diazaspiro[4.5]decane-2-carbonyl]-2,3-dihydro-1H-inden-1-yl]-benzamide], 99%.
`CC(C)CN1CCC2(CC1)CCN(C(=O)c1ccc3c(c1)C(NC(=O)c1c(F)cccc1Cl)CC3)C2` (centres unmarked) [IND_CC-777, 2-Chloro-6-fluoro-N-[6-[8-(2-methyl-propyl)-2,8-diazaspiro[4.5]decane-2-carbonyl]-2,3-dihydro-1H-inden-1-yl]-benzamide]: the inhibition at 10 µM is 83%.
As for `CCC(CC)CN1CCC2(CC1)CCN(C(=O)c1ccc3c(c1)C(NC(=O)c1c(F)cccc1Cl)CC3)C2` (centres unmarked) [IND_CC-778, 2-Chloro-N-[6-[8-(2-ethyl-butyl)-2,8-diazaspiro[4.5]decane-2-carbonyl]-2,3-dihydro-1H-inden-1-yl]-6-fluoro-benzamide], the figure is 105%; as for `O=C(NC1CCc2ccc(C(=O)N3CCC4(CCN(CC5CCCCC5)CC4)C3)cc21)c1c(F)cccc1Cl` (centres unmarked) [IND_CC-779, 2-Chloro-N-[6-[8-(cyclohexyl-methyl)-2,8-diazaspiro[4.5]decane-2-carbonyl]-2,3-dihydro-1H-inden-1-yl]-6-fluoro-benzamide], 69%; as for `O=C(NC1CCc2ccc(C(=O)N3CCC4(CCN(CCc5ccccc5)CC4)C3)cc21)c1c(F)cccc1Cl` (centres unmarked) [IND_CC-780, 2-Chloro-6-fluoro-N-[6-(8-phenethyl-2,8-diazaspiro[4.5]decane-2-carbonyl)-2,3-dihydro-1H-inden-1-yl]-benzamide], 101%.
As for `O=C(NC1CCc2ccc(C(=O)N3CCC4(CCN(CCCc5cccc(F)c5)CC4)C3)cc21)c1c(F)cccc1Cl` (centres unmarked) [IND_CC-781, 2-Chloro-6-fluoro-N-[6-[8-[3-(3-fluorophenyl)-propyl]-2,8-diazaspiro[4.5]decane-2-carbonyl]-2,3-dihydro-1H-inden-1-yl]-benzamide], the figure is 106%.
Then `O=C(NC1CCc2ccc(C(=O)N3CCC4(CCN(CCCc5ccc(F)cc5)CC4)C3)cc21)c1c(F)cccc1Cl` (centres unmarked) [IND_CC-782, 2-Chloro-6-fluoro-N-[6-[8-[3-(4-fluorophenyl)-propyl]-2,8-diazaspiro[4.5]decane-2-carbonyl]-2,3-dihydro-1H-inden-1-yl]-benzamide], with 107%; and `O=C(NC1CCc2ccc(C(=O)N3CCC4(CCN(Cc5ccc[nH]5)CC4)CC3)cc21)c1c(F)cccc1Cl` (centres unmarked) [IND_CC-783, 2-Chloro-6-fluoro-N-[6-[9-(1H-pyrrol-2-yl-methyl)-3,9-diazaspiro[5.5]undecane-3-carbonyl]-2,3-dihydro-1H-inden-1-yl]-benzamide], with 102%.
Take `O=C(NC1CCc2ccc(C(=O)N3CCC4(CCN(Cc5ccccn5)CC4)CC3)cc21)c1c(F)cccc1Cl` (centres unmarked) [IND_CC-784, 2-Chloro-6-fluoro-N-[6-[9-(pyridin-2-yl-methyl)-3,9-diazaspiro[5.5]undecane-3-carbonyl]-2,3-dihydro-1H-inden-1-yl]-benzamide]: the inhibition at 10 µM was 99%.
Consider `O=C(NC1CCc2ccc(C(=O)N3CCC4(CCN(Cc5ccncc5)CC4)CC3)cc21)c1c(F)cccc1Cl` (centres unmarked) [IND_CC-785, 2-Chloro-6-fluoro-N-[6-[9-(pyridin-4-yl-methyl)-3,9-diazaspiro[5.5]undecane-3-carbonyl]-2,3-dihydro-1H-inden-1-yl]-benzamide], for which the inhibition at 10 µM was determined as 98%.
As for `O=C(NC1CCc2ccc(C(=O)N3CCC4(CCN(Cc5cccnc5)CC4)CC3)cc21)c1c(F)cccc1Cl` (centres unmarked) [IND_CC-786, 2-Chloro-6-fluoro-N-[6-[9-(pyridin-3-yl-methyl)-3,9-diazaspiro[5.5]undecane-3-carbonyl]-2,3-dihydro-1H-inden-1-yl]-benzamide], the figure is 104%.

(Values after patent publication US8455475B2 (Gruenenthal GmbH, priority 2009, dated 2013).)
